Read-outs that look alike come from different tables or passages of the source.
Columns and labels:
[1] = Repeat-dose dose-escalation study of controlled release anagrelide: pharmacokinetics; format: in vivo, human; conditions: for half-life / AUC0-inf / AUC / Cmax / Tmax / AUC0-t: human, plasma, oral; for AUC0-inf / AUC / Cmax / AUC0-t: dose-normalized to 0.2 mg; for AUC0-inf: read-out: AUC0-inf; for AUC: read-out: AUC0-τ; for Cmax: read-out: Cmax; for Tmax: median; for AUC0-t: read-out: AUC0-t
Experimental: A placebo-controlled, double-blind repeat-dose, dose-escalation, sequential cohort study was conducted to evaluate the pharmacokinetics and pharmacodynamics of a controlled release composition of anagrelide as described herein in healthy subjects. An objective of the study was to explore the dose-response relationship for effects on platelet counts of a low dose range of a composition of anagrelide as described herein in healthy subjects. Other objectives of the study included determining the time course of effect and recovery of a range of doses of the composition including anagrelide on platelet count, determining the effects of a range of doses of the anagrelide compositions on platelet aggregation (collagen and ADP as agonists), determining the single and repeat dose pharmacokinetics of the anagrelide composition, and exploring the safety and tolerability of the compositions given as single doses and repeatedly for up to 21 days.
Eligible subjects were treated as follows: • Subjects were admitted to the unit on day 1 in the morning after an overnight fast and remain in the unit until 4 hours after morning dosing on day 5. • Subjects received a single dose of controlled release composition including anagrelide (or matching placebo) on day 1 in the morning. • Subjects commenced repeat dosing twice a day with the controlled release anagrelide composition on the morning of day 3 and remained in the unit until 4 hours after morning dose on day 5. • Subjects continued repeat twice a day dosing with the controlled release anagrelide composition as outpatients. Dosing continued until the morning of day 23. • All morning doses were taken after an overnight fast of at least 8 hour. • All evening doses were taken at least 2 hour after food consumption. No food was to be consumed for at least 1 hour after any dose (4 hours for the morning doses on day 1 and day 23). • On day 6-day 21, blood was taken pre-dosing of the controlled release anagrelide composition for full blood count (FBC) and platelet count (every day), trough PK (day 7, day 10, day 13, day 16 and day 19) and clinical chemistry (day 13). • Subjects were readmitted to the unit on the morning of day 22 and remained there until day 25 so that the PK of the final dose of the controlled release composition containing anagrelide on day 23 could be followed for 48 hours. • Subjects returned to the clinic daily from day 26 to day 31 for FBC and platelet counts. • Subjects returned for a follow up visit 14-16 days after the last dose of the controlled release composition containing anagrelide. Study Population:
A controlled release composition of anagrelide as described above in Table 4 of Example 1 (composition 2 fast release with seal coat) was used in unit doses of 100 μg and 300 μg, administered orally.
In this protocol, 4 cohorts of 200 μg, 300 μg, 400 μg and 600 μg doses of the controlled release composition including anagrelide administered twice daily were studied.
Platelet count, collagen-induced platelet aggregation, ADP induced platelet aggregation, template bleeding time, AUC0-t, AUC0-∞, Cmax, Cmin, t1/2, λZ and tmax were determined.
The starting dose of 200 μg (as a single dose on day 1 and then twice a day for 21 days) was chosen as a dose unlikely to cause any clinically significant reduction in platelet counts in healthy subjects. This starting dose was chosen because identification of the lowest dose of the controlled release composition containing anagrelide producing any effect on platelet counts was of interest. In each subsequent cohort the dose was increased by […] twice a day with the objective of identifying the dose range that lowers platelet counts by 30-50%. With daily monitoring of platelet counts, this escalation was determined to allow identification of the effective dose range of the controlled release composition of anagrelide without placing the subjects at significant clinical risk.

cultured megakaryocytes [2] = assay: In vitro studies of cultured megakaryocytes (TPO inhibition effects, megakaryocytopoiesis); format: cell-based; conditions: at 310.55 g/mol
[3] = 38 volunteers, single 1 mg dose of immediate release anagrelide (Agrylin); cited from earlier work
[4] = patients with ET or other myeloproliferative diseases; cited from earlier work
cAMP PDE = conditions: sonicated human platelets; read-out: IC50 for inhibition of cAMP PDE activity; cited from earlier work
cGMP PDE = conditions: sonicated human platelets; read-out: IC50 for inhibition of cGMP PDE activity; cited from earlier work
cultured megakaryocytes [5] = conditions: cultured megakaryocytes; cited from earlier work
[6] = cited from earlier work
CYP1A2 = CYP1A2 (Homo sapiens, UniProt P05177); conditions: cited from earlier work
Sequence of CYP1A2 (P05177 whole entry): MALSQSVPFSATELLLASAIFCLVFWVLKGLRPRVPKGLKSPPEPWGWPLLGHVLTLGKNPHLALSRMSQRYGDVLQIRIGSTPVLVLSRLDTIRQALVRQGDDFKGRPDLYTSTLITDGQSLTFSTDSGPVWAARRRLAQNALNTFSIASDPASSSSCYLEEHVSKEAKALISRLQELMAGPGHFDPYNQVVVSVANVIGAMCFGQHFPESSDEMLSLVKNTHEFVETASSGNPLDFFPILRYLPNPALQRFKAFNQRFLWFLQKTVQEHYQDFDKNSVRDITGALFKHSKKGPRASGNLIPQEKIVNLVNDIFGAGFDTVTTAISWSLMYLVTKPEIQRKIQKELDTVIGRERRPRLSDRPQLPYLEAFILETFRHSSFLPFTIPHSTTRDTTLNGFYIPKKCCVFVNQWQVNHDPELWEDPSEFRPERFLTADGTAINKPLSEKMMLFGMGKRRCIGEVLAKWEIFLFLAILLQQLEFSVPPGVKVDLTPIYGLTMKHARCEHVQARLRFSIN

[7] = cited from earlier work; remark: listed apart in the source
circulating platelets = conditions: patients with essential thrombocythemia, immediate release form 3 mg/day, after approximately 10 days; cited from earlier work
[8] = 0.2 mg, cohort 1 (0.2 mg), day 1
[9] = 0.2 mg, cohort 1 (0.2 mg), day 23
[10] = 0.3 mg, cohort 4 (0.3 mg), day 1
[11] = 0.3 mg, cohort 4 (0.3 mg), day 23
[12] = 0.4 mg, cohort 2 (0.4 mg), day 1
[13] = 0.4 mg, cohort 2 (0.4 mg), day 23
[14] = 0.6 mg, cohort 3 (0.6 mg), day 1
[15] = 14C labelled anagrelide in humans

`O=C1CN2Cc3c(ccc(Cl)c3Cl)N=C2N1` [anagrelide, 6,7-dichloro-1,5-dihydroimidazo-[2,1-b]quinazolin-2(3H)-one] showed a Kel ([1]; cohort 1 (0.2 mg), day 1) of 0.1908 h⁻¹, a Kel ([1]; cohort 1 (0.2 mg), day 23) of 0.0871 h⁻¹ and a Kel ([1]; cohort 2 (0.4 mg), day 1) of 0.0426 h⁻¹. The Kel ([1]; cohort 2 (0.4 mg), day 23) was 0.0567 h⁻¹, the Kel ([1]; cohort 3 (0.6 mg), day 1) was 0.0490 h⁻¹ and the Kel ([1]; cohort 4 (0.3 mg), day 1) was 0.1685 h⁻¹. The Kel ([1]; cohort 4 (0.3 mg), day 23) was 0.0321 h⁻¹, the half-life [1, 8] was 22.9 h and the half-life [1, 9] was 34.3 h. The AUC0-inf [1, 8] was 2.45 ng·h/mL, the AUC [1, 8] was 1.75 ng·h/mL and the Cmax [1, 8] was 0.334 ng/mL. It also gave an AUC0-inf [1, 9] of 3.25 ng·h/mL, an AUC [1, 9] of 2 ng·h/mL and a Cmax [1, 9] of 0.354 ng/mL. The Tmax [1, 8] was 4 h, the Tmax [1, 9] was 3 h and the half-life [1, 10] was 14.3 h. It also gave a half-life [1, 11] of 21.6 h, an AUC0-inf [1, 10] of 2.24 ng·h/mL and an AUC [1, 10] of 1.63 ng·h/mL. It also gave a Cmax [1, 10] of 0.284 ng/mL, an AUC0-inf [1, 11] of 2.1 ng·h/mL and an AUC [1, 11] of 1.87 ng·h/mL. For the same compound, the Cmax [1, 11] was 0.224 ng/mL, the Tmax [1, 10] was 3.61 h and the Tmax [1, 11] was 2 h. It also gave a half-life [1, 12] of 56.1 h, a half-life [1, 13] of 15.1 h and an AUC0-inf [1, 12] of 3.48 ng·h/mL. It also gave an AUC [1, 12] of 1.48 ng·h/mL, a Cmax [1, 12] of 0.234 ng/mL and an AUC0-inf [1, 13] of 3.28 ng·h/mL. It also gave an AUC [1, 13] of 2.26 ng·h/mL, a Cmax [1, 13] of 0.331 ng/mL and a Tmax [1, 12] of 3.51 h. It also gave a Tmax [1, 13] of 3.02 h, a half-life [1, 14] of 19.5 h and an AUC0-inf [1, 14] of 2.74 ng·h/mL. The AUC [1, 14] was 1.96 ng·h/mL, the Cmax [1, 14] was 0.304 ng/mL and the Tmax [1, 14] was 4 h. The AUC0-t ([1]; cohort 1 (0.2 mg), day 1) was 1.72 ng·h/mL, the AUC0-t ([1]; cohort 2 (0.4 mg), day 1) was 1.66 ng·h/mL and the AUC0-t ([1]; cohort 3 (0.6 mg), day 1) was 2.26 ng·h/mL. The AUC0-t ([1]; cohort 4 (0.3 mg), day 1) was 1.82 ng·h/mL, the “Concentrations at which TPO inhibition effects are seen (molar equivalent)” value (cultured megakaryocytes [2]) was 0.032 to 0.16 µM and the “AUC0-inf ± RSD (%)” value [3] was 11.1 ± 37.6 ng·h/mL. For the same compound, the “Cmax ± RSD (%)” value [3] was 4.99 ± 74.4 ng/mL, the “Tmax ± RSD (%)” value [3] was 1.3 ± 53.8 h and the Observed half-life [4] was “about 1.7 h”. For the same compound, the “Share of all drug-related products in the plasma” value [4] was “less than 20%”, the IC50 (cAMP PDE) was 0.054 µM and the IC50 (cGMP PDE) was 34 µM. The “Concentrations at which TPO inhibition effects are seen” value (cultured megakaryocytes [5]) was 0.01 to 5 µg/mL, the “Eliminated via the kidneys” value [6, 15] was > 70% and the “Excreted in the feces” value [6, 15] was “approximately 10%”. For the same compound, the Terminal half-life ([6]; commercially available instant release formulation) was 1.7 h, the “Drug-drug interactions with hydroxycarbamide or aspirin” value ([6]; in vivo) was “No drug-drug interactions were identified” and the “Absorption in the gastrointestinal tract” value ([6]; oral, marketed immediate release formulation) was “about 70%”. The “Level of CYP1A2 inhibition relative to therapeutic exposure” value (CYP1A2) was “about 900 fold”, the “Solubility in diethyl ether or n-heptane” value [7] was “insoluble” and the “Solubility in dimethylsulfoxide and N,N-dimethylformamide” value [7] was “sparingly soluble”. For the same compound, the Solubility in water [7] was “very slightly soluble” and the “Decrease in the number of circulating platelets” value (circulating platelets) was 30-50%.

From patent US9750698B2, “Controlled release compositions of agents that reduce circulating levels of platelets and methods therefor” (BioVascular, Inc., priority 2008, dated 2017)
